Measurements from patent US20250213571A1, “TYK2 INHIBITORS AND USES THEREOF” (Alumis Inc., priority 2022, published 2025).
pKd: −log10 of the molar value. Structures can show the parent of a compound that is named as a salt.

Biological target: JAK1 JH2 (Homo sapiens (Human), UniProt P23458)
Test: JAK1 JH2 binding (Kd, Table 2)
Conditions: JH2 domain

Chain of JAK1 JH2 (P23458 583-855): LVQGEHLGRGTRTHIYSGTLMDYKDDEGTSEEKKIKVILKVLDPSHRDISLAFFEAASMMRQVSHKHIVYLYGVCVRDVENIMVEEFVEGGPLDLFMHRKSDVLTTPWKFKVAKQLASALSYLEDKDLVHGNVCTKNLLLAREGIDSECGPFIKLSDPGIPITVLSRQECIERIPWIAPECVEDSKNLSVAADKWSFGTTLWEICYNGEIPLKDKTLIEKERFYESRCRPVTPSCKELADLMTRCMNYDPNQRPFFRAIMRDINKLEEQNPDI

| Compound | pKd |
| --- | --- |
| CNc1cc2nc3c(cnn13)C(=O)N[C@H](C)COCc1cc(c3cn(C)nc3c1)N2 [Compound 53] | 6.00 to 8.00 |
| CNc1cc2nn3c(cnc13)C(=O)N[C@H](C)COCc1cc(c3cnn(C)c3c1)N2 [Compound 12, (7R,E)-3^1,7-Dimethyl-1^8-(methylamino)-3^1H-5-oxa-2,8-diaza-1(6,3)-imidazo[1,2-b]pyridazina-3(4,6)-indazolacyclononaphan-9-one] | 6.00 to 8.00 |

Biological target: TYK2 JH1 (Homo sapiens (Human), UniProt P29597)
Sequence (P29597 897-1176): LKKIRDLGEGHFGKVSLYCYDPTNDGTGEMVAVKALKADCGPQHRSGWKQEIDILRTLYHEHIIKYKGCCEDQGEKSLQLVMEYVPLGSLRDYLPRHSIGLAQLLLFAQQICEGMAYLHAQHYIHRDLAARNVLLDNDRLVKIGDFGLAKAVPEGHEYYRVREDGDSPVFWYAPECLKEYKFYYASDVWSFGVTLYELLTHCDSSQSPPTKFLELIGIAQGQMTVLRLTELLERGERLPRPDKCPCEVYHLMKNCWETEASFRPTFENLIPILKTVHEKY
Test: TYK2 JH1 binding (Kd, Table 2)
Conditions: JH1 domain

| Compound | pKd |
| --- | --- |
| CNc1cc2nc3c(cnn13)C(=O)N[C@H](C)COCc1cc(c3cn(C)nc3c1)N2 [Compound 53] | 4.52 to 5.00 |
| CNc1cc2nn3c(cnc13)C(=O)N[C@H](C)COCc1cc(c3cnn(C)c3c1)N2 [Compound 12, (7R,E)-3^1,7-Dimethyl-1^8-(methylamino)-3^1H-5-oxa-2,8-diaza-1(6,3)-imidazo[1,2-b]pyridazina-3(4,6)-indazolacyclononaphan-9-one] | 5.00 to 6.00 |

Biological target: human TYK2 (JH2domain-pseudokinase) (Homo sapiens (Human), UniProt P29597)
Sequence (P29597 556-888): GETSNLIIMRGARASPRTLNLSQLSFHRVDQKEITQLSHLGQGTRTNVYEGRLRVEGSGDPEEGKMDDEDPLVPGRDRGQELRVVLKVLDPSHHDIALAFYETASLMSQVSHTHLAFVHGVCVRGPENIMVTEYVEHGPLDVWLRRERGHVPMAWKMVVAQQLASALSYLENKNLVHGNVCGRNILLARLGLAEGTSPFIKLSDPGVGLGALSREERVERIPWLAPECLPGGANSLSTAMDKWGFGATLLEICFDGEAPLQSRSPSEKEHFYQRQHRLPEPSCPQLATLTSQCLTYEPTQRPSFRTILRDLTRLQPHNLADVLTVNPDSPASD
Test: TYK2 JH2 domain binding assay (KINOMEscan)
Conditions: not given
Description: Binding constants for the compounds described herein against the JH2 domain were determined by the following protocol for a KINOMEscan® assay (DiscoveRx). A fusion protein of a partial length construct of human TYK2 (JH2domain-pseudokinase) (amino acids G556 to D888 based on reference sequence NP_003322.3) and the DNA binding domain of NFkB was expressed in transiently transfected HEK293 cells. From these HEK 293 cells, extracts were prepared in M-PER extraction buffer (Pierce) in the presence of Protease Inhibitor Cocktail Complete (Roche) and Phosphatase Inhibitor Cocktail Set II (Merck) per manufacturers' instructions. The TYK2 (JH2domain-pseudokinase) fusion protein was labeled with a chimeric double-stranded DNA tag containing the NFkB binding site fused to an amplicon for qPCR readout, which was added directly to the expression extract (the final concentration of DNA-tag in the binding reaction is 0.1 nM).
Streptavidin-coated magnetic beads (Dynal M280) were treated with a biotinylated small molecule ligand for 30 minutes at room temperature to generate affinity resins the binding assays. The liganded beads were blocked with excess biotin and washed with blocking buffer (SeaBlock (Pierce), 1% BSA, 0.05% Tween 20, 1 mM DTT) to remove unbound ligand and to reduce nonspecific binding.
The binding reaction was assembled by combining 16 μl of DNA-tagged kinase extract, 3.8 μl liganded affinity beads, and 0.18 μl test compound (PBS/0.05% Tween 20/10 mM DTT/0.1% BSA/2 μg/ml sonicated salmon sperm DNA)]. Extracts were used directly in binding assays without any enzyme purification steps at a ≥10,000-fold overall stock dilution (final DNA-tagged enzyme concentration <0.1 nM). Extracts were loaded with DNA-tag and diluted into the binding reaction in a two-step process. First extracts were diluted 1:100 in 1×binding buffer (PBS/0.05% Tween 20/10 mM DTT/0.1% BSA/2 […] sonicated salmon sperm DNA) containing 10 nM DNA-tag. This dilution was allowed to equilibrate at room temperature for 15 minutes and then subsequently diluted 1:100 in 1× binding buffer. Test compounds were prepared as 111× stocks in 100% DMSO. Kds were determined using an 11-point 3-fold compound dilution series with three DMSO control points. All compounds for Kd measurements were distributed by acoustic transfer (non-contact dispensing) in 100% DMSO. The compounds were then diluted directly into the assays such that the final concentration of DMSO was 0.9%. All reactions were performed in polypropylene 384-well plates. Each was a final volume of 0.02 mL. Assays were incubated with shaking for 1 hour at room temperature. Then the beads were pelleted and washed with wash buffer (1×PBS, 0.05% Tween 20) to remove displaced kinase and test compound. The washed based were resuspended in elution buffer (1 λPBS, 0.05% Tween […] non-biotinylated affinity ligand) and incubated at room temperature with shaking for 30 minutes. The kinase concentration in the eluates was measured by qPCR. qPCR reactions were assembled by adding 2.5 μL of kinase eluate to 7.5 μL of qPCR master mix containing […] amplicon primers and 0.15 μM amplicon probe. The qPCR protocol consisted of a 10 minute hot start at 95° C., followed by 35 cycles of 95° C. for 15 seconds, 60° C. for 1 minute.
Test compounds were prepared as 111× stocks in 100% DMSO. Kds were determined using an 11-point 3-fold compound dilution series with three DMSO control points. All compounds for Kd measurements were distributed by acoustic transfer (non-contact dispensing) in 100% DMSO. The compounds were then diluted directly into the assays such that the final concentration of DMSO was 0.9%. The Kds were determined using a compound top concentration of 30,000 nM. Kd measurements were performed in duplicate.
Binding constants (Kds) were calculated with a standard dose-response curve using the Hill equation: […]
The Hill Slope was set to −1. […]

| Compound | pKd |
| --- | --- |
| Cc1nc2ccc3cn2c1C(=O)N[C@H](C)COCc1cc(c2nnn(C)c2c1)N3 [Compound 75] | 6.00 to 8.00 |
| CNc1cc2nc3c(cnn13)C(=O)N[C@H](C)COCc1cc(c3cn(C)nc3c1)N2 [Compound 53] | > 8.00 |
| CNc1cc2nn3c(cnc13)C(=O)N[C@H](C)COCc1cc(c3cnn(C)c3c1)N2 [Compound 12, (7R,E)-3^1,7-Dimethyl-1^8-(methylamino)-3^1H-5-oxa-2,8-diaza-1(6,3)-imidazo[1,2-b]pyridazina-3(4,6)-indazolacyclononaphan-9-one] | > 8.00 |
| CNc1nc2nc3c(n(C)nc13)C(=O)N[C@H](C)COCc1cc(c3nnn(C)c3c1)N2 [Compound 70] | > 8.00 |
| CNc1cc2nn3c(cnc13)C(=O)N[C@H](C)COc1ccnc3cnc(cc13)N2 [Compound 63, (12R)-12-methyl-24-(methylamino)-14-oxa-2,4,5,7,11,18,21-heptaazapentacyclo[13.6.2.2^(3,6.0^(5,9.0^(19,23]pentacosa-1(22),3,6,8,15,17,19(23),20,24-nonaen-10-one hydrochloride] | > 8.00 |
| C[C@@H]1COCc2cc(c3nnn(C)c3c2)Nc2ccn3ncc(c3n2)C(=O)N1 [Compound 54] | > 8.00 |
| CNc1cc2nn3c(cnc13)C(=O)N[C@H](C)COc1cncc3ccc(cc13)N2 [Compound 68] | > 8.00 |
| CNc1cc2nn3c(cnc13)C(=O)N[C@H](C)COc1cccc3ncc(cc13)N2 [Compound 64] | > 8.00 |
| CNc1cc2nn3c(cnc13)C(=O)N[C@H](C)COCc1cc(cn3ccnc13)N2 [Compound 99, (14R)-14-methyl-21-(methylamino)-12-oxa-2,5,8,15,19,23,24-heptaazapentacyclo[15.5.2.1^(3,10.0^(5,9.0^(20,24]pentacosa-1(23),3,6,8,10(25),17,19,21-octaen-16-one hydrochloride] | > 8.00 |
| CNc1cc2nn3c(cnc13)C(=O)N[C@H](C)CS(=O)(=O)Cc1cc(c3nnn(C)c3c1)N2 [Compound 57] | > 8.00 |
| C[C@@H]1COCc2cc(c3nnn(C)c3c2)Nc2ccc3ncc(n3c2)C(=O)N1 [Compound 71] | 6.00 to 8.00 |
| CNc1nc2cn3c(cnc13)C(=O)N[C@H](C)COCc1cc(c3nnn(C)c3c1)N2 [Compound 76] | 5.00 to 6.00 |
| CNc1cc2nn3c(cnc13)C(=O)N[C@H](C)CSCc1cc(c3nnn(C)c3c1)N2 [Compound 55] | > 8.00 |
| CNc1cc2nn3c(cnc13)C(=O)N[C@H](C)COc1cccc3ccc(nc13)N2 [Compound 69] | > 8.00 |
| CNc1nc2nc3c(nn(C)c13)C(=O)N[C@H](C)COCc1cc(c3nnn(C)c3c1)N2 [Compound 65] | > 8.00 |
| CNc1cc2nn3c(cnc13)C(=O)N[C@H](C)CNc1ncnc3ccc(cc13)N2 [Compound 66] | > 8.00 |
| Cc1nc2ccc3nn2c1C(=O)N[C@H](C)COCc1cc(c2nnn(C)c2c1)N3 [Compound 67] | > 8.00 |
| CNc1nc2nc3c(n[nH]c13)C(=O)N[C@H](C)COCc1cc(c3nnn(C)c3c1)N2 [Compound 59] | > 8.00 |
| C[C@@H]1COCc2cc(c3nnn(C)c3c2)Nc2cn3c(cnc3cn2)C(=O)N1 [Compound 77] | 5.00 to 6.00 |
| CNc1cc2nn3c(cnc13)C(=O)N[C@H](C)C[S+]([O-])Cc1cc(c3nnn(C)c3c1)N2 (stereo partly drawn) [Compound 58] | > 8.00 |
| CNc1cc2nn3c(cnc13)C(=O)N[C@H](C)CNc1ccnc3ccc(cc13)N2 [Compound 61, (12R)-12-methyl-24-(methylamino)-2,4,5,7,11,14,18-heptaazapentacyclo[13.6.2.2^{3,6}0.^{5,9}0.^{19,23}]pentacosa-1(21),3,6,8,15,17,19,22,24-nonaen-10-one] | > 8.00 |
| CNc1cc2nn3c(cnc13)C(=O)N[C@H](C)COc1ncnc3cc(OC)c(cc13)N2 [Compound 56] | > 8.00 |
| CNc1cc2nn3c(cnc13)C(=O)N[C@H](C)COc1nccc3ccc(cc13)N2 [Compound 62] | > 8.00 |
